Data set [1] in a line: Antioxidant activity assessed as AAPH radical scavenging activity preincubated for 15 mins measured every min for 80 mins by ORAC-FL assay relative to trolox. It is filed as functional.
In data set [2] the target is T1, Melatonin receptor type 1A (Homo sapiens, UniProt P48039). Description: Displacement of [125l]-lodomelatonin from human MT1 receptor expressed in CHO cells incubated for 120 mins by scintillation counting analysis. Type of data set: cell-based.
Data set [3] addresses T2, Amine oxidase [flavin-containing] B (Homo sapiens, UniProt P27338).
T2 sequence (P27338 whole entry): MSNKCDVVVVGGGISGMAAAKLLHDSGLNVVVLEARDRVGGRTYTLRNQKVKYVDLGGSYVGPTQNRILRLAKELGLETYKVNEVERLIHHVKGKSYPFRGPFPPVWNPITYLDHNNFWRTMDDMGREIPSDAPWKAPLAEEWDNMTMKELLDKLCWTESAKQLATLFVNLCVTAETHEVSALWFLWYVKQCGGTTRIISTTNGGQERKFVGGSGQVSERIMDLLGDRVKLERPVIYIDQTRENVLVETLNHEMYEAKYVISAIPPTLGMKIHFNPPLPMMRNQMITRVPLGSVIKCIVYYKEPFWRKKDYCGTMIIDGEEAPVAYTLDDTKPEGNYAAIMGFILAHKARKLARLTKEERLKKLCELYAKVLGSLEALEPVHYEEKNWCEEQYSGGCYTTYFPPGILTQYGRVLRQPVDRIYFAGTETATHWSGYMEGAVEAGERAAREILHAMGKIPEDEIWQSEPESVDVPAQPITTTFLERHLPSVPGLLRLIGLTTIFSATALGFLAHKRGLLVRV
Description: Inhibition of human MAO-B using p-tyramine as substrate by Amplex Red reagent based fluorescence analysis

The target in data set [4] is T3, Amine oxidase [flavin-containing] A (Homo sapiens, UniProt P21397).
T3 sequence (P21397 whole entry): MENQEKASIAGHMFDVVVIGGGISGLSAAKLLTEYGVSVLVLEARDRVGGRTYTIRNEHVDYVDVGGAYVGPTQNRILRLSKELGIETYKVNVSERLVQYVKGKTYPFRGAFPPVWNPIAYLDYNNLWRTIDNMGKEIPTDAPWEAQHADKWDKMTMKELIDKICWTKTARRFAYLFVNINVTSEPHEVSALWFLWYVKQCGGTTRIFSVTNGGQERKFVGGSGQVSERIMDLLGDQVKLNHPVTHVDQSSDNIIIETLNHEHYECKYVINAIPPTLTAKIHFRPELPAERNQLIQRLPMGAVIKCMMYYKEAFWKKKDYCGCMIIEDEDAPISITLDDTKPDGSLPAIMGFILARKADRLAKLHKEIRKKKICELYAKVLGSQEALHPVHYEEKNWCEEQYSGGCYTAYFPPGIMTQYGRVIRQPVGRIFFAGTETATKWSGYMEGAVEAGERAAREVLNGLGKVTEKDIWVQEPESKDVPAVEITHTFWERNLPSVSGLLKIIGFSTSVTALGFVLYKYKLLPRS
Description: Inhibition of human MAO-A using p-tyramine as substrate by Amplex Red reagent based fluorescence analysis

Data set [5] addresses T4, Melatonin receptor type 1B (Homo sapiens, UniProt P49286).
T4 sequence (P49286 whole entry): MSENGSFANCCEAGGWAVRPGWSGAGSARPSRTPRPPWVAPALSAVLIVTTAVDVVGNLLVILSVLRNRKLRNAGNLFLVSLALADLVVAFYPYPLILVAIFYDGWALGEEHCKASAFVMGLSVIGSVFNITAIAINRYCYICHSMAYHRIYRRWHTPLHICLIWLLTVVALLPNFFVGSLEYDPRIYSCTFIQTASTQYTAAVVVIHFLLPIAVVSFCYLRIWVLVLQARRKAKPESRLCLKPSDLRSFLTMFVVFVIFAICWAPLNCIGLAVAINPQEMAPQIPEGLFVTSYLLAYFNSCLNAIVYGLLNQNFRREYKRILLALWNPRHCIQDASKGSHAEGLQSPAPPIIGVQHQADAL
In words: Displacement of [125l]-lodomelatonin from human MT2 receptor expressed in CHO cells incubated for 120 mins by scintillation counting analysis. It is filed as cell-based.

Data set [6] can be described thus: Displacement of [125l]-lodomelatonin from hamster brain cell QR2 incubated for 60 mins by scintillation counting analysis.
Data set [7] addresses T5, Polyunsaturated fatty acid 5-lipoxygenase (Homo sapiens, UniProt P09917).
T5 sequence (P09917 whole entry): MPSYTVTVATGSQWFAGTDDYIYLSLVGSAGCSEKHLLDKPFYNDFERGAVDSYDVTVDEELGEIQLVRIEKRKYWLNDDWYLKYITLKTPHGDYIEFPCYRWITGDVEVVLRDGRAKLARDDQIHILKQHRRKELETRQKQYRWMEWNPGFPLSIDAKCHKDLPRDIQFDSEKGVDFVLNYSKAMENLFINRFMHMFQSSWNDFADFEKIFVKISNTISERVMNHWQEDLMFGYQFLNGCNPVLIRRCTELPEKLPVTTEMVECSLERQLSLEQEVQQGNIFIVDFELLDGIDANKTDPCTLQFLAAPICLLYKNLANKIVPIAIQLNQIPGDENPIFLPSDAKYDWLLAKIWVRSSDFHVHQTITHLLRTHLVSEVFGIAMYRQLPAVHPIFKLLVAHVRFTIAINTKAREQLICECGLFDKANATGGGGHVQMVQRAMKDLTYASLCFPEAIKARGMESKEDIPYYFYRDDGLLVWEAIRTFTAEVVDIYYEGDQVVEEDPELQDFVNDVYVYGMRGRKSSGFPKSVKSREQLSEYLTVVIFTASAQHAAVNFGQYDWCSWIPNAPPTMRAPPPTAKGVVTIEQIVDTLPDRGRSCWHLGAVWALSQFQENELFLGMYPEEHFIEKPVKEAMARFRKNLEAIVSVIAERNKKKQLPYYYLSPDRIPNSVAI
In words: Inhibition of human 5-Lipoxygenase using H2DCFDA as substrate preincubated for 5 mins and measured by Spectrophotometric assay.

Data set [8] addresses T6, Nuclear factor erythroid 2-related factor 2 (Homo sapiens) (UniProt Q16236).
T6 sequence (whole entry): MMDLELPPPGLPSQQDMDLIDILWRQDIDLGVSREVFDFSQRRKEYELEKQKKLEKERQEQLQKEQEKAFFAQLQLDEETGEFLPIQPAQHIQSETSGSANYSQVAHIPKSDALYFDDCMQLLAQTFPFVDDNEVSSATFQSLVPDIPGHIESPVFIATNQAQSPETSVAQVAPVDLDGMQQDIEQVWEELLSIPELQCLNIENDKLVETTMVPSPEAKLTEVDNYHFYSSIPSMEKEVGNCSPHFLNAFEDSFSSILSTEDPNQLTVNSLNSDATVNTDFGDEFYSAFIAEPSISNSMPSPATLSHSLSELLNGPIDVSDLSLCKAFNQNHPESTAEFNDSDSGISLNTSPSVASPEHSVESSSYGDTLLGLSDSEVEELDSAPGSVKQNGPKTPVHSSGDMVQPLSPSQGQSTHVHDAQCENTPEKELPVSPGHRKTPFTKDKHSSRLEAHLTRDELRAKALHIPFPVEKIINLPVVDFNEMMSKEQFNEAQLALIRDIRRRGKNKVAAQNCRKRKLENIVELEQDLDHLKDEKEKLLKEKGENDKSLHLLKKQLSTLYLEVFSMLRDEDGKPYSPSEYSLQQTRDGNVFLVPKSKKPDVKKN
Description: Activation of NRF2 in human AREc32 cells incubated for 24 hrs by luciferase reporter gene assay. Type of data set: cell-based. Background: In a reporter assay the amount or activity of a reporter protein is the signal.

Data set [9] concerns the target Kelch-like ECH-associated protein 1 (Homo sapiens) (UniProt Q14145). In words: Binding affinity to human recombinant Keap1 Kelch domain expressed in Escherichia coli BL21 (DE3) by SPR assay. In general terms: SPR reads the build-up and loss of mass on a sensor chip optically.
Data set [10] can be described thus: Permeability of compound by PAMPA-BBB assay. On the technique in general: The PAMPA barrier holds no transporters, so it reflects passive diffusion.
Another data set deals with Cricetinae. Description: Displacement of [125l]-lodomelatonin from hamster brain cell QR2 at 100 nM incubated for 60 mins by scintillation counting analysis relative to control. Type of data set: tissue-based.
The target of data set [11] is T1, Melatonin receptor type 1A. In words: Displacement of [125l]-lodomelatonin from human MT1 receptor expressed in CHO cells incubated for 120 mins by scintillation counting analysis relative to control. It is filed as cell-based.

pIC50, pKi: −log10 of the molar value. Active and inactive are the calls of the source. No cut-off for these calls is given here.

Sequence of Kelch-like ECH-associated protein 1 (Homo sapiens) (Q14145 whole entry, the tested form may be a part): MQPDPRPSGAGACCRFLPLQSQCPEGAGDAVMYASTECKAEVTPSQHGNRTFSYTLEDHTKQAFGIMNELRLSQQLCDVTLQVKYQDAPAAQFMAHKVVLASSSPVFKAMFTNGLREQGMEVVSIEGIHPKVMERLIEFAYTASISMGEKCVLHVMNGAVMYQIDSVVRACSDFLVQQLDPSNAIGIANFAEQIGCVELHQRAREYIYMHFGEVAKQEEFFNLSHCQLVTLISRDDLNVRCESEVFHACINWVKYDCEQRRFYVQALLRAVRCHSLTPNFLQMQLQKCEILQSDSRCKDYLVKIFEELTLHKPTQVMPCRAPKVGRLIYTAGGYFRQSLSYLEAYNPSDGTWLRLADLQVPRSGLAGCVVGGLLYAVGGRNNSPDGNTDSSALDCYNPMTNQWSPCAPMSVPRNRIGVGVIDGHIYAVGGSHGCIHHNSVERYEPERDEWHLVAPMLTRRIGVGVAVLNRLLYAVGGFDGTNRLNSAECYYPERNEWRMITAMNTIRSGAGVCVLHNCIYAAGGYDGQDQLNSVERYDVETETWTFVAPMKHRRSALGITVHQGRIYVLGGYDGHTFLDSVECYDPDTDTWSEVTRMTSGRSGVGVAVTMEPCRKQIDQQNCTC
T1 sequence (P48039 whole entry): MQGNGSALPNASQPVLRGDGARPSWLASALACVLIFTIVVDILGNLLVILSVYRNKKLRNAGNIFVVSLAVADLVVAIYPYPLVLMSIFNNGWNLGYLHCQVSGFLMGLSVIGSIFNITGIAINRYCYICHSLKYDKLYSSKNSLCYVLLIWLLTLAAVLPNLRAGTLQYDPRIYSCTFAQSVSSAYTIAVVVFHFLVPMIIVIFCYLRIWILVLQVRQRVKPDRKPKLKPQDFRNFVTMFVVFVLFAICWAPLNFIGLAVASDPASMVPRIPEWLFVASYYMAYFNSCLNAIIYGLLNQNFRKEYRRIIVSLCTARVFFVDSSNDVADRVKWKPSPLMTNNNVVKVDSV

Turning to `CCCCCCCn1nc(CCc2c[nH]c3ccc(OC)cc23)oc1=O`, in data set [1], the Activity is 2.1 equiv.

As for `CNc1nnc(CCc2c[nH]c3ccc(OC)cc23)o1`, the pKi is 6.26 in data set [2], 6.96 in data set [5] and 6.48 in data set [6]. Further, the pIC50 is 4.43 in data set [3], less than 4.30 in [4] and 4.22 in [7]. For the same molecule, in [1], the Activity is 1.8 equiv.

In the case of `C#CCNC(=O)/C=C/c1c[nH]c2ccc(OC)cc12`, the CD in data set [8] (filed as activator) worked out at 1.76 µM. The outcome in data set [9] was Active.

As for `COc1ccc2[nH]cc(CCc3nn(CC4CCC4)c(=O)o3)c2c1`, in data set [1], the Activity stood at 2.2 equiv.

In data set [8], `COc1ccc2[nH]cc(CC(C)c3n[nH]c(=O)o3)c2c1` (centres undefined) displayed a CD of more than 30 µM. In data set [9], the outcome was inactive.

In the case of `COc1ccc2[nH]cc(CCc3n[nH]c(=O)o3)c2c1`, the Papp in [10] is less than 2 ×10⁻⁶ cm/s. This molecule registered an inhibition with Cricetinae of 5%. The pKi in data set [6] was less than 7.00. In addition, in data set [1], the Activity was 2.7 equiv.

In [8] (filed as activator), `C=CCNC(=O)/C=C/c1c[nH]c2ccc(OC)cc12` yielded a CD of 27.4 µM. Moreover, in data set [9], the result was inactive.

With `CCCn1nc(CCc2c[nH]c3ccc(OC)cc23)oc1=O`, the Activity in data set [8] (filed as activator) came out at 2.3 equiv. The result in [9] was inactive.

With `COc1ccc2[nH]cc(CCNC(C)=O)c2c1` [MELATONIN], the pKi in [6] was 7.11. In addition, the Activity in data set [1] is less than 0.1 equiv.

As to `COc1ccc2[nH]cc(CCc3nn(CCCc4ccccc4)c(=O)o3)c2c1`, in [1], the Activity was found to be 2.7 equiv.

The molecule `COc1ccc2[nH]cc(/C=C/c3n[nH]c(=O)o3)c2c1` registered a CD in data set [8] of more than 60 µM. In addition, the outcome in [9] was Active.

In the case of `COc1ccc2[nH]cc(CCc3nn(CC4CCCC4)c(=O)o3)c2c1`, the Activity in data set [1] is 2.8 equiv.

In [8] (filed as activator), `C[S+]([O-])CCCCN=C=S` (centres undefined) showed a CD of 0.54 µM.

Regarding `CCCCCCn1nc(CCc2c[nH]c3ccc(OC)cc23)oc1=O`, the Activity in [1] stood at 3 equiv.

In data set [8], `COc1ccc2c(c1)C(/C=C/c1n[nH]c(=O)o1)=CCC2` came in with a CD of more than 30 µM.

As for `COc1cc2cccc(/C=C/c3n[nH]c(=O)o3)c2cc1OC`, the inhibition in data set [11] was found to be 63%. For the same molecule, the CD in data set [8] is more than 30 µM. In addition, the result in [9] was inactive. For the same molecule, the figures for the pKi in [2] and in [5] were less than 6.00 and 7.16, respectively. The Activity in data set [1] was less than 0.1 equiv.

Turning to `COc1ccc2cccc(/C=C/c3n[nH]c(=O)o3)c2c1`, the CD in [8] was more than 30 µM.

The molecule `C#CCn1nc(/C=C/c2c[nH]c3ccc(OC)cc23)oc1=O` returned a CD in data set [8] (filed as activator) of 15.1 µM. The result in data set [9] was Active.

One may read the pKi as −log10 of the Ki, conventionally taken in molar units. In general, pIC50 refers to the negative decadic logarithm of the IC50, by convention in mol/L. A lower pIC50 goes with a large IC50. As usually defined, the Papp is the rate of passage across a membrane or cell layer, normalised by area and donor concentration. As usually defined, the inhibition is the relative decrease from the control value, in per cent.

For the origin of these results see ChEMBL document CHEMBL4765258 (Eur J Med Chem, 2020).
